Where two headings read alike, the source gives them in different places.
How the values were obtained:
Type in all cases: in vivo
[1] = system: Winter Wheat variety 'Hereward'; assay: Glasshouse assay for crop safety, post-emergence, +/- safener cloquintocet-mexyl (CQC), percentage phytotoxicity; details: 250 g/ha, evaluated after 13 days, 100=total damage, 0=no damage; for Post-emergence Crop Selectivity, percentage phytotoxicity, Wheat +CQC: with safener cloquintocet-mexyl (CQC) seed treatment 0.5 g/kg seed; for Post-emergence Crop Selectivity, percentage phytotoxicity, Wheat − CQC: without safener cloquintocet-mexyl (CQC)
Description: Test—Glasshouse Assay for Crop Safety.
Seeds of the Winter Wheat variety ‘Hereward’ were seed treated with a wettable powder formulation of the cereal herbicide safener, cloquintocet mexyl, at a rate of 0.5 grams per kilogram of dry seed prior to the initiation of glasshouse testing. Three seeds were sown per 1.5 inch plastic pot into a sandy loam soil at a depth of 1 cm, 8 days prior to application of the test compounds and was watered and grown under controlled conditions in a glasshouse (at 24/16° C., day/night; 14 hours light; 65% humidity). The plants were sprayed Post-emergence with an aqueous spray solution derived from the formulation of the technical active ingredient in acetone/water (50:50) solution containing 0.5% Tween 20 (polyoxyethelyene sorbitan monolaurate, CAS RN 9005-64-5).
The test plants were then grown in a glasshouse under controlled conditions (at 24/16° C., day/night; 14 hours light; 65% humidity) and watered twice daily. After 13 days for pre and post-emergence, the test was evaluated (100=total damage to plant; 0=no damage to plant).

[2] = system: Avena fatua (AVEFA); assay: Glasshouse assay for herbicidal activity (pre- and post-emergence), percentage phytotoxicity; details: Avena fatua, Rate 250 g/ha, 100%=total damage, 0%=no damage
In short: (§1)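 Visual phytotoxicity score, 0% = undamaged to 100% = total kill, read 20 days after treatment for PRE and 15 days for POST. Pots of standard soil; treatment at day 1 (PRE) or roughly day 12 (POST). Glasshouse: 16 h photoperiod, 65% RH, 24/18 or 20/16 °C by climate type.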

[3] = system: Lolium perenne (LOLPE); assay: as above; details: Lolium perenne, Rate 250 g/ha, 100%=total damage, 0%=no damage
In short: as §1

[4] = system: Echinochloa crus-galli (ECHCG); assay: as above; details: Echinochloa crus-galli, Rate 250 g/ha, 100%=total damage, 0%=no damage
In short: as §1

[5] = system: Alopecurus myosuroides (ALOMY); assay: as above; details: Alopecurus myosuroides, Rate 250 g/ha, 100%=total damage, 0%=no damage
In short: as §1

[6] = post-emergence, 360 h, post-emergence, assessed visually 15 DAA, read-out: Post-emergence herbicidal activity (percentage phytotoxicity) AVEFA POST
[7] = pre-emergence, 480 h, pre-emergence, assessed visually 20 DAA, read-out: Pre-emergence herbicidal activity (percentage phytotoxicity) AVEFA PRE
[8] = post-emergence, 360 h, post-emergence, assessed visually 15 DAA, read-out: Post-emergence herbicidal activity (percentage phytotoxicity) LOLPE POST
[9] = pre-emergence, 480 h, pre-emergence, assessed visually 20 DAA, read-out: Pre-emergence herbicidal activity (percentage phytotoxicity) LOLPE PRE
[10] = post-emergence, 360 h, post-emergence, assessed visually 15 DAA, read-out: Post-emergence herbicidal activity (percentage phytotoxicity) ECHCG POST
[11] = pre-emergence, 480 h, pre-emergence, assessed visually 20 DAA, read-out: Pre-emergence herbicidal activity (percentage phytotoxicity) ECHCG PRE
[12] = post-emergence, 360 h, post-emergence, assessed visually 15 DAA, read-out: Post-emergence herbicidal activity (percentage phytotoxicity) ALOMY POST
[13] = pre-emergence, 480 h, pre-emergence, assessed visually 20 DAA, read-out: Pre-emergence herbicidal activity (percentage phytotoxicity) ALOMY PRE

SMILES | Post-emergence Crop Selectivity, percentage phytotoxicity, Wheat +CQC [1] [%] | Post-emergence Crop Selectivity, percentage phytotoxicity, Wheat − CQC [1] [%] | pest or weed control at 250 g/ha [2, 6] [%] | pest or weed control at 250 g/ha [2, 7] [%] | pest or weed control at 250 g/ha [3, 8] [%] | pest or weed control at 250 g/ha [3, 9] [%] | pest or weed control at 250 g/ha [4, 10] [%] | pest or weed control at 250 g/ha [4, 11] [%] | pest or weed control at 250 g/ha [5, 12] [%] | pest or weed control at 250 g/ha [5, 13] [%]
Cc1cc(C)c(C2C(=O)CC(CC(=O)N3CCCCC3)C2=O)c(C)c1 (stereo not drawn) [Compound A22] | 50 | 60 | 60 | 30 | 80 | 70 | 90 | 100 | 80 | 60
Cc1cc(-c2ncc(F)cc2F)cc(C)c1C1C(=O)CC(CC(=O)NC(C)(C)C)C1=O (stereo not drawn) [Compound A85] | 10 | 80 | 100 | 80 | 90 | 100 | 100 | 90 | 100 | 100
CCCNC(=O)CC1CC(=O)C(c2c(C)cc(C)cc2C)C1=O (stereo not drawn) [Compound A26] | 40 | 70 | 80 | 70 | 90 | 100 | 80 | 80 | 80 | 80
CCCCNC(=O)CC1CC(=O)C(c2c(C)cc(C)cc2C)C1=O (stereo not drawn) [Compound A12] | 0 | 70 | 80 | 70 | 90 | 100 | 80 | 100 | 100 | 90
Cc1cc(-c2ncc(F)cn2)cc(C)c1C1C(=O)CC(CC(=O)NCc2cccc(Cl)c2)C1=O (stereo not drawn) [Compound A138] | 40 | 70 | 100 | 100 | 100 | 100 | 100 | 100 | 90 | 90
Cc1cc(C)c(C2C(=O)CC(CC(=O)NCCc3ccccc3)C2=O)c(C)c1 (stereo not drawn) [Compound A1, 2-[2,4-dioxo-3-(2,4,6-trimethylphenyl)cyclopentyl]-N-phenethyl-acetamide] | 0 | 60 | 60 | 60 | 80 | 100 | 80 | 90 | 60 | 60
Cc1cc(C)c(C2C(=O)CC(CC(=O)NCC(C)C)C2=O)c(C)c1 (stereo not drawn) [Compound A5] | 10 | 80 | 80 | 70 | 80 | 100 | 80 | 100 | 90 | 100
COCC(C)NC(=O)CC1CC(=O)C(c2c(C)cc(C)cc2C)C1=O (stereo not drawn) [Compound A16] | 30 | 80 | 90 | 90 | 80 | 80 | 100 | 100 | 90 | 90
Cc1cc(C)c(C2C(=O)CC(CC(=O)NCc3ccccc3)C2=O)c(C)c1 (stereo not drawn) [Compound A4] | 10 | 60 | 80 | 30 | 90 | 80 | 80 | 70 | 50 | 50
Cc1cc(C)c(C2C(=O)CC(CC(=O)NCc3cccs3)C2=O)c(C)c1 (stereo not drawn) [Compound A6] | 10 | 70 | 90 | 60 | 90 | 100 | 90 | 100 | 90 | 90
Cc1cc(C)c(C2C(=O)CC(CC(=O)NCC(C)(C)C)C2=O)c(C)c1 (stereo not drawn) [Compound A14] | 10 | 60 | 70 | 70 | 80 | 80 | 80 | 100 | 80 | 90
Cc1cc(-n2cc(Cl)cn2)cc(C)c1C1C(=O)CC(CC(=O)NC2CCCC2)C1=O (stereo not drawn) [Compound A70] | 20 | 70 | 70 | 70 | 70 | 70 | 90 | 100 | 90 | 70
Cc1cc(-c2ncc(Cl)cc2F)cc(C)c1C1C(=O)CC(CC(=O)NC(C)(C)C)C1=O (stereo not drawn) [Compound A39, N-tert-butyl-2-[3-[4-(5-chloro-3-fluoro-2-pyridyl)-2,6-dimethyl-phenyl]-2,4-dioxo-cyclopentyl]acetamide] | 50 | 80 | 100 | 100 | 100 | 100 | 100 | 100 | 100 | 100
Cc1cc(C)c(C2C(=O)CC(CC(=O)NCC3CC3)C2=O)c(C)c1 (stereo not drawn) [Compound A19] | 40 | 80 | 80 | 70 | 90 | 90 | 80 | 90 | 90 | 90
CCCN(C)C(=O)CC1CC(=O)C(c2c(C)cc(C)cc2C)C1=O (stereo not drawn) [Compound A25] | 0 | 40 | 70 | 70 | 90 | 90 | 90 | 80 | 70 | 70

From patent US10206394B2, “Herbicidal compounds” (Syngenta Participations AG, priority 2014, dated 2019)
